Patent US10953015B2, “Use of adenosine receptor signaling to regulate P-gp function” (CORNELL UNIVERSITY, priority 2016, dated 2021)

Key:
P-gp [1] = assay: P-gp solubility and secretion in HBMVEC (RIPA lysate, CSK cytoskeletal fraction, media); format: cell-based, human
From the text: FIG. 8A is a schematic diagram of the experimental procedure for analysis of Lexiscan®'s effect on P-gp solubility and excretion in primary brain endothelial cells (“HBMVEC”). FIGS. 8B-8C are western blots and graphs summarizing the experimental result of each western blot. FIGS. 8B-8C show the analysis of P-gp expression of HBMVEC upon activation with Lexiscan® at different time points after lysis with RIPA buffer (FIG. 8B) or CSK buffer to measure P-gp levels in the cytoskeletal fraction (FIG. 8C). Band intensity was normalized to GAPDH and graphed. […] Band intensity was normalized using GAPDH and plotted. FIG. 8E is a western blot of secreted P-gp in HBMVEC upon activation with Lexiscan® in absence or presence of an MMP9 inhibitor: both short and long exposures of western blot from MMP9 inhibitor-treated samples are shown. Band intensity was plotted as a graph. FIG. 8F is a western blot showing the results of an Immunoprecipitation assay of MMP9 with lysate from HBMVEC treated with vehicle (control) or 1 μM of Lexiscan® for 5 minutes. P-gp was pulled down using anti-P-gp antibody and immunoblotted with an anti-MMP9 antibody. FIG. 8G is an immunofluorescence microscopy image of MMP9 on HBMVEC treated with control (top panel) or 1 μM of Lexiscan® (middle panel) for 5 minutes. Cells were stained with P-gp (green) and MMP9 (red). Nucleus was counterstained with DAPI (blue). […] Cell-surface colocalization of P-gp and MMP9 is indicated by arrows. The scale bars indicates 25 μm (upper and middle panels); 5 μm (bottom panels). FIG. 8H is a graph summarizing the intensity of fluorescence of MMP9 from FIG. 8G. Fluorescent intensity of MMP9 was quantified and plotted as graph (n=20). **P<0.01 (2-tailed Student's t test, 1 representative result of 3 different experiments).
HCMEC-D3 and HBMVEC cells were plated in 12-well plates and were grown until they reached 100% confluency. […] The intensity of band was analyzed with densitometric analysis and plotted as a graph for analysis of time-course effect of AR signaling on P-gp expression.

P-gp [2] = assay: Epirubicin accumulation and P-gp staining in MCF7 cells (fluorescence microscopy); format: cell-based, human; conditions: 1 μM
Protocol: MCF7 cells (human breast cancer cell line) were cultured in 24 well plates until they reached confluency. FIGS. 17A-17C are images of western blots of cells treated with vehicle control (i.e., DMSO) (“D”) or 1 μM of the broad spectrum AR agonist NECA (“N”) (FIG. 17A), 1 μM of the A2A AR agonist Lexiscan® (“L”) (FIG. 17B), or 1 μM of the A2B AR agonist BAY60 (“B”) (FIG. 17C), respectively for 24, 48, 72 hours. Cells were lysed with lysis buffer and expression levels of P-gp, MMP9, or VEGF analyzed by western blot. GAPDH was used as loading a control. FIG. 17D is a graph of experimental results showing that Lexiscan® down-regulates P-gp expression in MCF7 breast cancer cells. MCF7 breast cancer cells were treated with Lex (0.25 μM) concomitant with Rhodamine 123 (“Rho123”). […] Students T test, P<0.001. […] FIG. 17E is a fluorescence microscopy image showing MCF7 breast cancer cells grown on coverslips and treated with vehicle (DMSO, control), or A2 AR agonists, Lexiscan® (1 μM) or A1193 (1 μM) for 15 minutes in the presence of epirubicin. Cells were stained with an antibody to P-gp and mounted with DAPI. FIG. 17F is a graph of the fluorescent intensity quantified from FIG. 17E by measuring the mean fluorescent intensity (“MFI”) of epirubicin (pink) that is present in cell nuclei. ***=P<0.0001.
To further assess the modulation of A2A AR agonists on P-gp expression in MCF7 cells, applicants evaluated the accumulation of the P-gp substrate epirubicin in MCF7 cells. MCF7 cells were treated with DMSO (control), 1 μM Lexiscan®, or 1 μM of the A2A AR agonist A1193. […] In this case, the down-regulation of P-gp expression is equivalent to down-regulation of its function (Kim et al., “A2A Adenosine Receptor Modulates Drug Efflux Transporter P-Glycoprotein at the Blood-Brain Barrier,” J Clin Invest. 126(5):1717-33 (2016), which is hereby incorporated by reference in its entirety).

## CNC(=O)c1cnn(-c2nc(N)c3ncn([C@@H]4O[C@H](CO)[C@@H](O)[C@H]4O)c3n2)c1 [Lexiscan®, 1-[6-amino-9-[(2R,3R,4S,5R)-3,4-dihydroxy-5-(hydroxymethyl)oxolan-2-yl]purin-2-yl]-N-methylpyrazole-4-carboxamide]
P-gp [1]
  Secreted P-gp released into the media: An increase in secreted P-gp that was released into the media
P-gp [1]; up to 60 minutes
  P-gp level in cytoskeletal fraction (CSK buffer): P-gp levels increased at from 5 to 15 minutes, returned to baseline by 30 minutes
  P-gp level in whole lysate (RIPA buffer): P-gp levels declined compared with vehicle control beginning at 5 minutes and were maintained for up to 60 minutes
P-gp [2]; 15 minutes
  P-gp expression (antibody staining): down-regulate P-gp expression
P-gp [2]; 15 minutes in the presence of epirubicin
  Epirubicin accumulation (MFI in cell nuclei): retained more epirubicin than those treated with control
